Results: PubChem BioAssay (NCI)
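Abbreviation: GI50, concentration required for 50% inhibition of growth. TGI: total growth inhibition.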

Tests used:
Assay in all cases: growth of human tumour cells (NCI), 384-well format
[1] = tested on: CAKI-1 renal
[2] = tested on: T-47D breast
[3] = tested on: UACC-257 melanoma
[4] = tested on: SN12C renal
[5] = tested on: SF-268 CNS
[6] = tested on: BT-549 breast
[7] = tested on: HOP-92 NSCLC
[8] = tested on: MDA-MB-435 melanoma
[9] = tested on: MDA-MB-468 breast
[10] = tested on: NCI-H460 NSCLC
[11] = tested on: HCC-2998 colon
[12] = tested on: UACC-62 melanoma
[13] = tested on: SF-295 CNS
[14] = tested on: A549 NSCLC
[15] = tested on: RPMI-8226 leukemia
[16] = tested on: OVCAR-8 ovarian
[17] = tested on: ACHN renal
[18] = tested on: LOX IMVI melanoma
[19] = tested on: SK-MEL-5 melanoma
[20] = tested on: NCI/ADR-RES ovarian
[21] = tested on: NCI-H522 lung
[22] = tested on: IGROV1 ovarian
[23] = tested on: OVCAR-5 ovarian
[24] = tested on: M14 melanoma
[25] = tested on: SK-MEL-28 melanoma
[26] = tested on: OVCAR-4 ovarian
[27] = tested on: HOP-62 NSCLC
[28] = tested on: SF-539 CNS
[29] = tested on: PC-3 prostate
[30] = tested on: SR leukemia
[31] = tested on: HS 578T breast
[32] = tested on: RXF 393 renal
[33] = tested on: DU-145 prostate
[34] = tested on: NCI-H23 lung
[35] = tested on: MDA-MB-231 breast
[36] = tested on: MOLT-4 leukemia
[37] = tested on: SNB-75 CNS
[38] = tested on: HT29 colon
[39] = tested on: TK-10 renal
[40] = tested on: MALME-3M melanoma
[41] = tested on: A498 renal
[42] = tested on: NCI-H322M lung
[43] = tested on: OVCAR-3 ovarian
[44] = tested on: HL-60(TB) leukemia
[45] = tested on: SNB-19 CNS
[46] = tested on: KM12 colon
[47] = tested on: NCI-H226 lung
[48] = tested on: EKVX NSCLC
[49] = tested on: HCT-15 colon
[50] = tested on: HCT-116 colon
[51] = tested on: U251 glioblastoma
[52] = tested on: SK-OV-3 ovarian
[53] = tested on: MCF7 breast
[54] = tested on: COLO 205 colon

## NC(=O)c1ccc(N(C(N)=O)c2c(F)cccc2F)nc1-c1ccc(F)cc1F
[1]
  GI50: > 100 µM
  TGI: > 100 µM
[2]
  GI50: > 100 µM
  TGI: > 100 µM
[3]
  GI50: > 100 µM
  TGI: > 100 µM
[4]
  GI50: > 100 µM
  TGI: > 100 µM
[5]
  GI50: > 100 µM
  TGI: > 100 µM
[6]
  GI50: > 100 µM
  TGI: > 100 µM
[7]
  GI50: > 100 µM
  TGI: > 100 µM
[8]
  GI50: > 100 µM
  TGI: > 100 µM
[9]
  GI50: > 100 µM
  TGI: > 100 µM
[10]
  GI50: > 100 µM
  TGI: > 100 µM
[11]
  GI50: > 100 µM
  TGI: > 100 µM
[12]
  GI50: > 100 µM
  TGI: > 100 µM
[13]
  GI50: > 100 µM
  TGI: > 100 µM
[14]
  GI50: > 100 µM
  TGI: > 100 µM
[15]
  GI50: > 100 µM
  TGI: > 100 µM
[16]
  GI50: > 100 µM
  TGI: > 100 µM
[17]
  GI50: > 100 µM
  TGI: > 100 µM
[18]
  GI50: > 100 µM
  TGI: > 100 µM
[19]
  GI50: > 100 µM
  TGI: > 100 µM
[20]
  GI50: > 100 µM
  TGI: > 100 µM
[21]
  GI50: > 100 µM
  TGI: > 100 µM
[22]
  GI50: > 100 µM
  TGI: > 100 µM
[23]
  GI50: > 100 µM
  TGI: > 100 µM
[24]
  GI50: > 100 µM
  TGI: > 100 µM
[25]
  GI50: > 100 µM
  TGI: > 100 µM
[26]
  GI50: > 100 µM
  TGI: > 100 µM
[27]
  GI50: > 100 µM
  TGI: > 100 µM
[28]
  GI50: > 100 µM
  TGI: > 100 µM
[29]
  GI50: > 100 µM
  TGI: > 100 µM
[30]
  GI50: 98.2 µM
  TGI: > 100 µM
[31]
  GI50: > 100 µM
  TGI: > 100 µM
[32]
  GI50: > 100 µM
  TGI: > 100 µM
[33]
  GI50: > 100 µM
  TGI: > 100 µM
[34]
  GI50: > 100 µM
  TGI: > 100 µM
[35]
  GI50: > 100 µM
  TGI: > 100 µM
[36]
  GI50: > 100 µM
  TGI: > 100 µM
[37]
  GI50: > 100 µM
  TGI: > 100 µM
[38]
  GI50: > 100 µM
  TGI: > 100 µM
[39]
  GI50: > 100 µM
  TGI: > 100 µM
[40]
  GI50: > 100 µM
  TGI: > 100 µM
[41]
  GI50: > 100 µM
  TGI: > 100 µM
[42]
  GI50: > 100 µM
  TGI: > 100 µM
[43]
  GI50: > 100 µM
  TGI: > 100 µM
[44]
  GI50: > 100 µM
  TGI: > 100 µM
[45]
  GI50: > 100 µM
  TGI: > 100 µM
[46]
  GI50: > 100 µM
  TGI: > 100 µM
[47]
  GI50: > 100 µM
  TGI: > 100 µM
[48]
  GI50: > 100 µM
  TGI: > 100 µM
[49]
  GI50: > 100 µM
  TGI: > 100 µM
[50]
  GI50: > 100 µM
  TGI: > 100 µM
[51]
  GI50: > 100 µM
  TGI: > 100 µM
[52]
  GI50: > 100 µM
  TGI: > 100 µM
[53]
  GI50: > 100 µM
  TGI: > 100 µM
[54]
  GI50: > 100 µM
  TGI: > 100 µM
